Experimental data taken from US5981520A, “Piperazino derivatives as neurokinin antagonists” (Schering Corporation, priority 1998, dated 1999).
pKi: −log10 of the molar value.

How the values were obtained:
[1] = target: T1, human neurokinin 2 (NK2) receptor (Homo sapiens, UniProt P21452); experiment: Neurokinin receptor binding assay, NK2 ([3H]-Neurokinin A, CHO membranes); conditions: for pKi: racemic compounds except specifically defined enantiomers
T1 construct: expressed in transfected cells; host or cells: Chinese Hamster ovary (CHO) cells
T1 sequence (P21452 1-398): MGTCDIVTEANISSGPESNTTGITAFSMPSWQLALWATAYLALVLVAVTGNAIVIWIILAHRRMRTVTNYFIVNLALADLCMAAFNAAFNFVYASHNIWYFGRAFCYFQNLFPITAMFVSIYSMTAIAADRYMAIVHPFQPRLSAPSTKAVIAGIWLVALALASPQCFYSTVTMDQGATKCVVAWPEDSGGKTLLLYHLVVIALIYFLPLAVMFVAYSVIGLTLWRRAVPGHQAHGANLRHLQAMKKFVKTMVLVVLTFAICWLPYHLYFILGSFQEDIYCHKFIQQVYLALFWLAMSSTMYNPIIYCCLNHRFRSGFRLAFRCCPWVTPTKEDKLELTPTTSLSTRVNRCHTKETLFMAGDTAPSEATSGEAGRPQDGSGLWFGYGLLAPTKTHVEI
Experimental: (§1) Chinese Hamster ovary (CHO) cells transfected with the coding regions for the human neurokinin 1 (NK1) of the human neurokinin 2 (NK2) receptors are grown in Dulbecco's minimal essential medium supplemented with 10% fetal calf serum, 0.1 mM non-essential amino acids, 2 mM glutamine, 100 units/ml of penicillin and streptomycin, and 0.8 mg of G418/ml at 37° C. in a humidified atmosphere containing 5% CO2.
(§2) Cells are harvested by centrifugation and washed in RPMI media at […] for 5 minutes. The pellet is resuspended inTris-HCl (pH7.4) containing 1 uM phosphoramidon and 4 ug/ml of chymostatin at a cell density of 30×10^6 cells/ml. The suspension is then homogenized in a Brinkman Polytron (setting 5) for 30-45 seconds. The homogenate is centrifuged at 800×g for 5 min at 4° C. to collect unbroken cells and nuclei. The supematant is centrifuged in a Sorvall RC5C at 19,000 rpm ([…]) for 30 min at 4° C. The pellet is resuspended, an aliquot is removed for a protein determination (BCA) and washed again. The resulting pellet is stored at -80° C.
(§3) Binding is initiated by the addition of 100 μl of membrane (10-20 μg) containing the human NK-1 or NK-2 receptor in a final volume of 200 μl. After 40 minutes at room temperature, the reaction is stopped by rapid filtration onto Whatman GF/C filters which have been presoaked in 0.3% polyethylenimine. Filters are washed 2 times with 3 ml of 50 mM Tris-HCl (pH7.4).

[2] = target: T2, human neurokinin 1 (NK1) receptor (Homo sapiens, UniProt P25103); experiment: Neurokinin receptor binding assay, NK1 ([3H]-Substance P, CHO membranes); conditions: for pKi: racemic compounds except specifically defined enantiomers
T2 construct: expressed in transfected cells; host or cells: Chinese Hamster ovary (CHO) cells
Experimental: as §1, §2, §3

[3] = target: T3, NK3 (Homo sapiens, UniProt P29371); experiment: NK3 radioligand receptor binding assay as described in the literature; conditions: racemic compounds except specifically defined enantiomers
T3 sequence (P29371 1-465): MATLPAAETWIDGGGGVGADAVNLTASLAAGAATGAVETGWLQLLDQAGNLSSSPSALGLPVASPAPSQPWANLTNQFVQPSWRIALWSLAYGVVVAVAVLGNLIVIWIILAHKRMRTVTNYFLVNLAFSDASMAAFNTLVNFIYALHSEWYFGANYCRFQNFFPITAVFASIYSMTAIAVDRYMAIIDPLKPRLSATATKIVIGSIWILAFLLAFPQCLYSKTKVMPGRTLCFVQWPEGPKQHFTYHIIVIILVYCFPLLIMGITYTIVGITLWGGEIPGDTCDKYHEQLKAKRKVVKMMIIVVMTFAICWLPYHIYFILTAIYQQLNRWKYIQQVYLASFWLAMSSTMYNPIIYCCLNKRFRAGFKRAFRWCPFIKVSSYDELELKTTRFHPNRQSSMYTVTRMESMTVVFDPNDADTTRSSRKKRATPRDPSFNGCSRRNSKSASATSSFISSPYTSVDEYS

T2 sequence (P25103 whole entry): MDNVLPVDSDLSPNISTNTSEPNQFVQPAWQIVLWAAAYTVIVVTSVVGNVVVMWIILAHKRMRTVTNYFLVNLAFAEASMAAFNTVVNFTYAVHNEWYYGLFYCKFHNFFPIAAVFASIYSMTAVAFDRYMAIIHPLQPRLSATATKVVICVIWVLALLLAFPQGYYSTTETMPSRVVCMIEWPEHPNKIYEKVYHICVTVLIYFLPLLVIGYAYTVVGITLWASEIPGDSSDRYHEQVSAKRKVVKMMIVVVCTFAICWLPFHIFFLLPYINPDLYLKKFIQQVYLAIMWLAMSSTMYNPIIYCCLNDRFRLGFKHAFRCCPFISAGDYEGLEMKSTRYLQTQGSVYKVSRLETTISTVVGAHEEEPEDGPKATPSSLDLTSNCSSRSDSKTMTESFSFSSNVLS

inhibition at 1 µM [1]	inhibition at 1 µM [2]	pKi [2]	pKi [1]	pKi [3]	Compound
22%	14%				O=C(c1cc(O)cc(O)c1)N1CCN(C(=O)CNC2CCN(Cc3ccccc3)CC2)C(c2ccc(Cl)c(Cl)c2)C1 (stereo not drawn)
7%		7.13			CN(CC(=O)N1CCN(Cc2cc(C(F)(F)F)cc(C(F)(F)F)c2)CC1c1ccc(Cl)c(Cl)c1)C1CCN(Cc2ccccc2)CC1 (stereo not drawn)
		9.24	7.03		Cc1cc(C)cc(C(=O)N2CCN(C(=O)C[N+](C)(C)C3CCN(Cc4ccccc4)CC3)C(c3ccc(Cl)c(Cl)c3)C2)c1 (stereo not drawn)
		8.60	7.32		COc1ccc(C2CN(C(=O)c3cc(C(F)(F)F)cc(C(F)(F)F)c3)CCN2C(=O)CNC2CCN(Cc3ccccc3)CC2)cc1 (stereo not drawn)
		6.93	6.73		O=C(C1c2ccccc2Oc2ccccc21)N1CCN(C(=O)CNC2CCN(Cc3ccccc3)CC2)C(c2ccc(Cl)c(Cl)c2)C1 (stereo not drawn)
				6.36	O=C(c1cc(C(F)(F)F)cc(C(F)(F)F)c1)N1CCN(C(=O)CNC2CCN(Cc3ccccc3)CC2)C(c2ccc(Cl)c(Cl)c2)C1 (stereo not drawn)
		7.20	7.17		CC(C)(C)c1cc(C(=O)N2CCN(C(=O)CNC3CCN(Cc4ccccc4)CC3)C(c3ccc(Cl)c(Cl)c3)C2)cc(C(C)(C)C)c1 (stereo not drawn)
		7.03	8.47		O=C(c1ccccc1)N1CCN(C(=O)CNC2CCN(Cc3ccccc3)CC2)C(c2ccc(Cl)c(Cl)c2)C1 (stereo not drawn)
